One assay has as its system HeLa cells. Kind of assay: 35S-methionine incorporation (protein synthesis) in HeLa cells. The class given is cell-based. The procedure: FIG. 4. Effect of hippuristanol on protein, RNA and DNA synthesis in cells. A. Relative rate of ^35S-methionine incorporation as a function of hippuristanol concentration in HeLa cells. Cells were exposed to the indicated concentration of compound for 50 min., followed by a 10 min. labeling period with ^35S-methionine in the presence of compound. The rate of protein synthesis (TCA precipitable cpm) obtained in the presence of compound was normalized to the rate obtained in the presence of DMSO (which was set at 1). The rate of protein synthesis in the control reactions (containing DMSO vehicle) averaged ˜700,000 cpm/10 min. labeling period. Results are shown for two experiments and the error of the mean is presented. The relative rate of ^35S-methionine incorporation in HeLa cells exposed to 10 μM anisomycin (positive control) for 60 min. was ˜0.02 (data not shown). B. Effect of hippuristanol on protein (gray circles), DNA (open squares), and RNA (solid squares) synthesis in HeLa cells. The rate of macromolecular synthesis (TCA precipitable cpm for a 10 min. labeling period) obtained in the presence of 1 μM hippuristanol was normalized to the rate obtained in the presence of DMSO and is plotted. The results are shown for two experiments and the error of the mean is presented. The rate of protein, RNA and DNA synthesis in the control reactions (containing DMSO vehicle) averaged ˜900,000 cpm/10 min, ˜16,000 cpm/10 min. and 7,000 cpm/10 min labeling, respectively. The relative rate of ^35S-methionine incorporation by HeLa cells exposed to 10 μM anisomycin for 60 min. (positive control for inhibition of protein synthesis) was 0.02 (data not shown). The relative rate of ^3H-uridine incorporation by HeLa cells exposed to 50 μM actinomycin (positive control for inhibition of RNA synthesis) for 60 min. was 0.01 (data not shown). C. […] Gradients were analyzed by piercing the tube with a Brandel tube piercer, passing 60% sucrose through the bottom of the tube, and monitoring the absorbance of the material eluting from the tube using an ISCO UA-6 UV Detector.

The target of a further assay is eIF4Ac (Homo sapiens, UniProt P60842). Kind of assay: Crosslinking of oxidized 32P-cap labeled CAT mRNA to native eIF4F (RNA binding). Particulars: 50 μM, 0.7 μg native eIF4F. The procedure:
FIG. 7. Effects of hippuristanol on ATP hydrolysis, ATP binding, and RNA binding activities of eIF4A. A. Hippuristanol inhibits eIF4AIf RNA-dependent ATPase activity. The rate of ATP hydrolysis as a function of hippuristanol concentration is plotted relative to the rate obtained in the presence of vehicle (0.5% DMSO). ATP hydrolysis was measured in the presence of 2.5 μM poly (U) and monitored by thin layer chromatography. […] Samples were resolved by SDS-PAGE and subjected to autoradiography. C. The RNA binding activity of eIF4AIf is inhibited by hippuristanol. Oxidized ^32P-cap labeled CAT mRNA was incubated with recombinant eIF4AIf in the absence (lane 2) or presence of ATP (lanes 1, 3-6), 0.6 mM m^7GDP (lane 3), 0.6 mM GDP (lane 4), or 50 μM hippuristanol (lane 6). Following treatment with RNase A, samples were resolved by SDS-PAGE and subjected to autoradiography. The asterisk denotes the position of migration of a ˜30 kDa contaminant in the recombinant eIF4AIf preparation used as an internal loading reference. D. The RNA binding activity of eIF4Ac is inhibited by hippuristanol. Oxidized ^32P-cap labeled CAT mRNA was incubated with 0.7 μg of native eIF4F in the absence (lane 1) or presence (lane 2) of 50 μM hippuristanol. […]
Ribosome Binding and mRNA Crosslinking. […] Fractions of 500 μl were collected and radioactivity was determined by scintillation counting. […]

eIF4Ac, sequence (P60842 whole entry): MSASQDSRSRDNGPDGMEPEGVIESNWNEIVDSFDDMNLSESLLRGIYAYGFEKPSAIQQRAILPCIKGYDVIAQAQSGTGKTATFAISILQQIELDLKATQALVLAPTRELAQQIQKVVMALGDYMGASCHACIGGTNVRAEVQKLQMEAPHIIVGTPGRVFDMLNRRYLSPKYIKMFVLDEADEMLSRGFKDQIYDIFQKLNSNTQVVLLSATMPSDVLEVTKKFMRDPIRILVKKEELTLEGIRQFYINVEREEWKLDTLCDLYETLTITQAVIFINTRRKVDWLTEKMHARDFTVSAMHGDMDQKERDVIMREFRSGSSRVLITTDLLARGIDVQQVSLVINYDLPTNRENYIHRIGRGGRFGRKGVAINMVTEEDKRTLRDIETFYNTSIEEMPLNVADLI
eIF4Ac, sequence (P06730 whole entry partner): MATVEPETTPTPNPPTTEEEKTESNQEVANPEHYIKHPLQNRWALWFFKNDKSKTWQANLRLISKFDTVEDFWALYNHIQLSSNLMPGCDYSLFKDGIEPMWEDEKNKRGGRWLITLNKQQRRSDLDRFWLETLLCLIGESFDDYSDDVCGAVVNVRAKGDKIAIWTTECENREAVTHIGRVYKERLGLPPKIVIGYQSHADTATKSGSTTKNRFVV
eIF4Ac, sequence (Q04637 whole entry partner): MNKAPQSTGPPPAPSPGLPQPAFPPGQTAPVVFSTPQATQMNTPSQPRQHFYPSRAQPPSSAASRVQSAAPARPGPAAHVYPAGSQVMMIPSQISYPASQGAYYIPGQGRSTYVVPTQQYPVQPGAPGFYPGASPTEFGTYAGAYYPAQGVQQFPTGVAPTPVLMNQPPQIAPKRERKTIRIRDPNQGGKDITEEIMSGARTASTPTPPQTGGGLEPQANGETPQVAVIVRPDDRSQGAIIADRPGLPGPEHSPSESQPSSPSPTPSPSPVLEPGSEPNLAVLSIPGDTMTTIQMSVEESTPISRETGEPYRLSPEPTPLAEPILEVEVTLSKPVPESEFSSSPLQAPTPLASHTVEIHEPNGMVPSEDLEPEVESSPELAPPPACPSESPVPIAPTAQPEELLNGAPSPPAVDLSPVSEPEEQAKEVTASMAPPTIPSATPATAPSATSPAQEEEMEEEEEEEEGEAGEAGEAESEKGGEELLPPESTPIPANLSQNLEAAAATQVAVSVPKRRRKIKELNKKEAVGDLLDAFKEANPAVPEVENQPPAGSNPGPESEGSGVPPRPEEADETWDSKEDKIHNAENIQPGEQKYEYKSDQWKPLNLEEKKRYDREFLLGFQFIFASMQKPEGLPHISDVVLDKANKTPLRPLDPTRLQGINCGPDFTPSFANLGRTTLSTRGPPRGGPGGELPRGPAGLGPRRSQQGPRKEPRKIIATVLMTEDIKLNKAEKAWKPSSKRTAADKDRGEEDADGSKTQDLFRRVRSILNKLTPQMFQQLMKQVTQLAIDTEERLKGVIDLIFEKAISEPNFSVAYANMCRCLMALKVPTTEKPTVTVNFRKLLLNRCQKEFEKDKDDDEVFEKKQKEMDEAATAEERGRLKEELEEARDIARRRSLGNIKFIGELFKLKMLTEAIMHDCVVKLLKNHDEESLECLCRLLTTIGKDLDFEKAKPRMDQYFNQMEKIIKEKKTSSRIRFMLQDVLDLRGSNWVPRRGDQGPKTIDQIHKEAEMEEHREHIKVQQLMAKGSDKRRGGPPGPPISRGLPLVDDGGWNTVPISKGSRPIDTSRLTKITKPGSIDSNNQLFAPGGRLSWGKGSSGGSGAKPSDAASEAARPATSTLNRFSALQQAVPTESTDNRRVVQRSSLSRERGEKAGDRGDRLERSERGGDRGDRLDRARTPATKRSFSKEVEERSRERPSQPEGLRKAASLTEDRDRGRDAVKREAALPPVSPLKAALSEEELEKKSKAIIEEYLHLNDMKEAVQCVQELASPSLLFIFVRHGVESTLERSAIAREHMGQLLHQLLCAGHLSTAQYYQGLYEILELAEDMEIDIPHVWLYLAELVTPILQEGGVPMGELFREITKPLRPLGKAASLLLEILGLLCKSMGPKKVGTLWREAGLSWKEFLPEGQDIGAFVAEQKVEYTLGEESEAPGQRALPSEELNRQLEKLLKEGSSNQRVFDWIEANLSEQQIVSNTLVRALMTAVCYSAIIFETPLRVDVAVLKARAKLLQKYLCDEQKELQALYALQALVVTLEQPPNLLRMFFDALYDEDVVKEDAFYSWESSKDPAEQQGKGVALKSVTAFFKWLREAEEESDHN

For the molecule `C[C@H]1C[C@@]2(O[C@H]3C[C@H]4[C@@H]5CC[C@H]6C[C@H](O)CC[C@]6(C)[C@H]5[C@@H](O)C[C@]4(C)[C@H]3[C@@]2(C)O)OC1(C)C` [Hippuristanol, hippuristanol], the “eukaryotic protein synthesis (35S-methionine incorporation)” value with HeLa cells (FIG. 4) was “inhibits”. The “reversibility of the inhibitory effect on protein synthesis” value in the assay on HeLa cells (HeLa cells, 1 μM for 60 min, then compound washed off) is on record as “reversible”. Also, the “RNA binding activity of eIF4Ac” value at eIF4Ac is given as “inhibited”.

The record behind these values is patent US8008346B2, “Chemotherapeutic agents for inhibition of protein translation” (The Royal University for the Advancement of Learning/McGill …, priority 2006, dated 2011).
